# Patent publication US8012984B2, “Substituted pyrazinone melanin concentrating hormone receptor-1 antagonists and methods” (Bristol-Myers Squibb Company, priority 2007, dated 2011)
# Target: T1, human melanin concentrating hormone receptor (MCHR1) (Homo sapiens, UniProt Q99705, A5T/E4Q)
# T1 construct: expressed in transfected cells; host or cells: HEK-293 (stably transfected), membranes
# Assay: Radioligand binding assay for assessment of MCHR1 activity
# Conditions: membranes of HEK-293 cells expressing mutated hMCHR1; competition with [125I]-MCH
# Description: Compounds of Formula I were initially characterized in an in vitro binding assay to determine their Ki or ability to antagonize binding of a peptide agonist to the human melanin concentrating hormone receptor (MCHR1).
# Membranes from stably transfected HEK-293 cells expressing a mutated (E4Q, AST) hMCHR1 receptor were prepared by dounce homogenization and differential centrifugation. Binding experiments were carried out with 0.5-1.0 ug of membrane protein incubated in a total of 0.2 ml in 25 mM HEPES (pH 7.4) with 10 mM MgCl2, 2 mM EGTA, and 0.1% BSA (Binding Buffer) for 90 min. For competition binding assays, reactions were carried out in the presence of with 0.06-0.1 nM [Phe^n, [^125I]Tyr^19]-MCH and increasing concentrations of unlabeled test molecules. Reactions were terminated by rapid vacuum filtration over 96 well-GFC Unifilter plates pre-coated with 0.075 ml binding buffer containing 1% BSA, and washed 3 times with 0.4 ml of Phospho-buffered Saline (pH 7.4) containing 0.01% TX-100. Filters were dried; 0.05 ml microscint 20 was added to each well and radioactivity was subsequently quantified by scintillation counting on a TopCount™ microplate scintillation counter (Packard). Inhibitory constants were determined by nonlinear least squares analysis using a four parameter logistic equation.
# T1 sequence (Q99705 whole entry E4Q/A5T): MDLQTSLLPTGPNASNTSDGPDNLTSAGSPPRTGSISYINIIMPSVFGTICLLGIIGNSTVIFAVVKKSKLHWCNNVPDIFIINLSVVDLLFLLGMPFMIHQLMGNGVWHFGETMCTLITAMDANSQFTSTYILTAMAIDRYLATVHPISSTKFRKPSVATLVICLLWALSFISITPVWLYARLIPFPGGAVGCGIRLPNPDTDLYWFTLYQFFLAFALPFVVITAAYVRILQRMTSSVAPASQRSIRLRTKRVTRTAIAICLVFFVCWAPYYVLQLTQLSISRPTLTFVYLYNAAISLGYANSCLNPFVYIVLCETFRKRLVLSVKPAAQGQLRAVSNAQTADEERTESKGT
row,Compound,Ki [nM]
1,CC(C)(O)COc1ccc(-n2ccnc(OCCc3ccc(F)cc3)c2=O)cc1Cl [Example 141],78
2,Cc1cc(=O)n(CC(C)(C)O)c2ccc(-n3ccnc(Sc4ccc(OC(F)(F)F)cc4)c3=O)cc12 [Example 178],290
3,Cc1cc(-n2ccnc(SCCc3ccccc3)c2=O)cnc1OCC(C)(C)O [Example 172],85
4,CCc1cc(-n2ccnc(SCCc3ccccc3)c2=O)ccc1OCC(C)(C)O [Example 65],10
5,COc1cc(-n2ccnc(SC(C)Cc3ccccc3)c2=O)ccc1OCC(C)(C)O (stereo not shown) [Example 46],232
6,CC(C)(O)COc1ccc(-n2ccnc(Sc3ccc(C(F)(F)F)cc3)c2=O)cn1 [Example 157],1730
7,CC(C)(O)COc1ncc(-n2ccnc(SCCc3ccccn3)c2=O)cc1Cl [Example 169],1290
8,"Cc1cc(-n2ccnc(SCCc3ccccn3)c2=O)ccc1OCC(C)(C)O [Example 110, 1-(4-(2-Hydroxy-2-methylpropoxy)-3-methylphenyl)-3-(2-(pyridin-2-yl)ethylthio)pyrazin-2(1H)-one]",17
9,COc1cc(-n2ccnc(Sc3ccc(OC(F)(F)F)cc3)c2=O)ccc1OCC(O)C1CC1 (stereo not shown) [Example 67],28
10,Cc1cc(-n2ccnc(Sc3ccc(C(F)(F)F)cc3)c2=O)cnc1OCC(C)(C)O [Example 170],132
11,COc1cc(-n2ccnc(Sc3nc4ccc(Cl)cc4s3)c2=O)ccc1OCC(C)(C)O [Example 59],125
12,COc1cc(-n2ccnc(Sc3ccc(C(F)(F)F)cc3)c2=O)ccc1OCC(C)O (stereo not shown) [Example 71],62
13,COc1cc(-n2ccnc(Sc3ccc(OC(F)(F)F)cc3)c2=O)ccc1OCC(C)(C)O [Example 38],20
14,COc1cc(-n2ccnc(Sc3ccc(C(F)(F)F)cc3)c2=O)ccc1OCC(C)(C)O [Example 36],33
15,COc1cc(-n2ccnc(Sc3ccccc3C(F)(F)F)c2=O)ccc1OCC(C)(C)O [Example 40],3220
16,Cc1cc(-n2ccnc(OCCc3cccc(Cl)c3)c2=O)ccc1OCC(C)(C)O [Example 155],45
17,COc1cc(-n2ccnc(Sc3ccccc3)c2=O)ccc1OCC(C)(C)O [Example 49],3040
18,"Cc1cc(-n2ccnc(Sc3ccc(C(F)(F)F)cn3)c2=O)ccc1OCC(C)(C)O [Example 95, 1-(4-(2-Hydroxy-2-methylpropoxy)-3-methylphenyl)-3-(5-(trifluoromethyl)pyridin-2-ylthio)pyrazin-2(1H)-one]",41
19,COc1cc(-n2ccnc(Sc3ccc(C(F)(F)F)cc3)c2=O)ccc1O[C@H]1COC[C@H]1O [Example 69],49
20,CCc1cc(-n2ccnc(OCCc3ccc(Cl)cc3)c2=O)ccc1OCC(C)(C)O [Example 151],64

# Results, then the compound that gave them:
row,Ki [nM],Compound
1,576,COc1ccc(-n2ccnc(SCCc3ccc(Cl)cc3)c2=O)cc1OC [Example 3]
2,17,CCc1cc(-n2ccnc(SCCc3ccc(F)cc3)c2=O)ccc1OCC(C)(C)O [Example 125]
3,1580,COc1cccc(Sc2nccn(-c3ccc(OCC(C)(C)O)c(OC)c3)c2=O)c1 [Example 39]
4,4660,COc1cc(-n2ccnc(SCc3ccccc3)c2=O)ccc1OCC(C)(C)O [Example 50]
5,3130,COc1cc(-n2ccnc(SCCCc3ccccc3)c2=O)ccc1OC[C@@H](C)O [Example 19]
6,63,"COc1cc(-n2ccnc(SCCc3ccccn3)c2=O)ccc1OCC(C)(C)O [Example 27, 1-(4-(2-Hydroxy-2-methylpropoxy)-3-methoxyphenyl)-3-(2-(pyridin-2-yl)-ethylthio)pyrazin-2(1H)-one]"
7,8,"Cc1cc(-n2ccnc(SCCc3ccccc3)c2=O)ccc1OCC(C)(C)O [Example 113, 1-(4-(2-Hydroxy-2-methylpropoxy)-3-methylphenyl)-3-(phenethylthio)pyrazin-2(1H)-one]"
8,9,Cc1cc(-n2ccnc(SCCc3ccc(F)cc3)c2=O)ccc1OCC(C)(C)O [Example 124]
9,3150,COc1cc(-n2ccnc(SCCc3ccncc3)c2=O)ccc1OCC(C)(C)O [Example 28]
10,141,COc1ccc(-n2ccnc(Sc3ccc(OC(F)(F)F)cc3)c2=O)cc1OC [Example 10]
11,18,COc1cc(-n2ccnc(SCCc3cccc(F)c3)c2=O)ccc1OCC(C)(C)O [Example 131]

# Target: T2, MCHR1 (Rattus norvegicus, UniProt P97639)
# T2 construct: from tissue; host or cells: whole animal: male Sprague Dawley rats
# Assay: Assessment of in vivo MCHR1 activity (body weight and food consumption in rats with choice of diets)
# Design: species or system Sprague Dawley rats
# Conditions: 3 mg/kg p.o. daily, day 0 through day 4, male Sprague Dawley rats
# Description: Male Sprague Dawley (CD, Charles River Breeding Laboratory) rats weighing approximately 240 grams were placed in individual plastic cages with AlphaDri bedding. The room was maintained at 72° F. and 50% humidity, and a 12/12 light dark cycle with lights out at 1600 hours. The rats were conditioned for 5 days prior to the start of the study to having a choice of foods.
# Baseline body weight was measured prior to drug treatment on day 0 of the study. Baseline food consumption was the average of the 3 days prior to the first drug treatment. […] All data were evaluated using ANOVA and Fishers PLSD statistics.
# T2 sequence (P97639 whole entry): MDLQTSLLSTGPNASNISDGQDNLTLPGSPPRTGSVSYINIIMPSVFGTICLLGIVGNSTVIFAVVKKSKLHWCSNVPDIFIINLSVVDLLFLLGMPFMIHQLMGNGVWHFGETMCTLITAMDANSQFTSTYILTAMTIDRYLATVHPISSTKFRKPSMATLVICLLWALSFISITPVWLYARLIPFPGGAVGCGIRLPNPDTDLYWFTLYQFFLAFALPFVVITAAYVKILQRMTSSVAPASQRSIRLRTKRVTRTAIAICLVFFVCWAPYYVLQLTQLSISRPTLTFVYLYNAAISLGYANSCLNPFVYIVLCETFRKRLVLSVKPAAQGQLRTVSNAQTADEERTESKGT
row,Compound,Weight Reduction versus Vehicle [%]
1,"COc1cc(-n2ccnc(Sc3ccc(C(F)(F)F)cc3)c2=O)ccc1OCC(C)(C)OC(=O)CN [Example 193, 1-(2-Methoxy-4-(2-oxo-3-(4-(trifluoromethyl)phenylthio)pyrazin-1(2H)-yl)phenoxy)-2-methylpropan-2-yl 2-aminoacetate]",0.7

# Same assay, conditions: 10 mg/kg p.o. daily, day 0 through day 4, male Sprague Dawley rats
row,Compound,Weight Reduction versus Vehicle [%]
1,"COc1cc(-n2ccnc(Sc3ccc(C(F)(F)F)cc3)c2=O)ccc1OCC(C)(C)OC(=O)CN [Example 193, 1-(2-Methoxy-4-(2-oxo-3-(4-(trifluoromethyl)phenylthio)pyrazin-1(2H)-yl)phenoxy)-2-methylpropan-2-yl 2-aminoacetate]",2.1

# Same assay, conditions: 30 mg/kg p.o. daily, day 0 through day 4, male Sprague Dawley rats
row,Compound,Weight Reduction versus Vehicle [%]
1,"COc1cc(-n2ccnc(Sc3ccc(C(F)(F)F)cc3)c2=O)ccc1OCC(C)(C)OC(=O)CN [Example 193, 1-(2-Methoxy-4-(2-oxo-3-(4-(trifluoromethyl)phenylthio)pyrazin-1(2H)-yl)phenoxy)-2-methylpropan-2-yl 2-aminoacetate]",3.4
2,"COc1cc(-n2ccnc(Sc3ccc(C(F)(F)F)cc3)c2=O)ccc1OCC(C)OC(=O)[C@@H](N)C(C)C (stereo in doubt) [Example 202, 1-(2-Methoxy-4-(2-oxo-3-(4-(trifluoromethyl)phenylthio)pyrazin-1(2H)-yl)phenoxy)propan-2-yl 2-amino-3-methylbutanoate]",2.2

# Same assay, conditions: 45 mg/kg p.o. daily, male Sprague Dawley rats
row,Compound,Weight Reduction versus Vehicle [%]
1,"COc1cc(-n2ccnc(SCCc3ccccn3)c2=O)ccc1OCC(C)(C)O [Example 27, 1-(4-(2-Hydroxy-2-methylpropoxy)-3-methoxyphenyl)-3-(2-(pyridin-2-yl)-ethylthio)pyrazin-2(1H)-one]",4.1
2,"Cc1cc(-n2ccnc(SCCc3ccccc3)c2=O)ccc1OCC(C)(C)O [Example 113, 1-(4-(2-Hydroxy-2-methylpropoxy)-3-methylphenyl)-3-(phenethylthio)pyrazin-2(1H)-one]",4.2
